Experimental data from US8476463B2 (BASF SE, priority 2008, dated 2013).

Assay: Temperature-dependent solubility (saturation concentration) of fumaric acid in di-n-butyl phthalate absorbent
Type: physicochemical
Excerpt: The analysis can be effected, for example, by means of calibrated gas chromatography. For calibration, preference is given to using an internal standard, for example diethylene glycol dimethyl ether. Before the gas chromatography analysis, the sample is generally homogenized, i.e. taken up in a solvent. One example of a solvent entirely suitable for this purpose is N,N-dimethylformamide. […] Particularly suitable separating columns are capillary columns with 100% dimethylpolysiloxane (e.g. DB-1 from Agilent) or (14% cyanopropylphenyl)methylpolysiloxane (e.g. DB-1701 from Agilent), preferably each of length 60 m, internal diameter 0.32 mm and film thickness 1 μm.
The syringe attachment filter used is a membrane filter of pore width 0.2 micrometer. […] Its concentration is determined analogously to the analysis method described in the determination of c(FA, desorption column outlet). […] When establishing the new, higher temperature, the temperature of the suspension must not overshoot the desired temperature by more than 3° C. When the desired temperature has been established, the mixture is then stirred at constant temperature at least for a duration of 4 hours. • (6) After this continued stirring time, another sample is taken, as described in point (4). In each sampling, generally a new syringe attachment filter is used.
Examples of secondary components caused by the industrial process include water, maleic anhydride, maleic acid, acrylic acid, methacrylic acid, acetic acid, propionic acid, phthalic anhydride and phthalic acid. […] The continuous line corresponds to the fitted curve.

SMILES: O=C(O)/C=C/C(=O)O [fumaric acid]
- saturation concentration of fumaric acid in the solution (mixture of dibutyl phthalate and fumaric acid, 50° C.): 250 ppm by weight
- saturation concentration of fumaric acid in the solution (solution from industrially operated maleic anhydride plant (dibutyl phthalate >98.5% by weight), 30° C.): 250 ppm by weight
- saturation concentration of fumaric acid in the solution (solution from industrially operated maleic anhydride plant (dibutyl phthalate >98.5% by weight), 50° C.): 400 ppm by weight
